In paper PMC7177946, “Effect of Ferulic Acid, a Phenolic Inducer of Fungal Laccase, on 26S Proteasome Activities In Vitro” (International Journal of Molecular Sciences, 2020):

Assays:
[1] = biological target: T1, human 26S proteasome, chymotrypsin-like (CHTL) site, β5 subunit (Homo sapiens, UniProt P28074); assay: fluorogenic peptidase assay, Suc-LLVY-AMC; format: biochemical; conditions: read-out: % inhibition at 1 mM
T1 construct: gene PSMB5; commercial purified 26S complex (BostonBiochem); beta subunits mature with N-terminal Thr; with Proteasome subunit beta type-7; Proteasome subunit beta type-6
T1 sequence (P28074 60-263): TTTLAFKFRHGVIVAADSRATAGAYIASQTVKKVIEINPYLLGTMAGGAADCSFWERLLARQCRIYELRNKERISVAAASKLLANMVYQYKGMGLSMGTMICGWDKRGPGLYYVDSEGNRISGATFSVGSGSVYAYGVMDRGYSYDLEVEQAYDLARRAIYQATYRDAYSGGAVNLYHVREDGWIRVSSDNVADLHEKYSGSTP

[2] = biological target: T2, human 26S proteasome, trypsin-like (TL) site, β2 subunit (Homo sapiens, UniProt Q99436); assay: fluorogenic peptidase assay, Z-GGR-AMC; format: biochemical; conditions: read-out: % inhibition at 1 mM
T2 construct: gene PSMB7; commercial purified 26S complex (BostonBiochem); beta subunits mature with N-terminal Thr; with Proteasome subunit beta type-5; Proteasome subunit beta type-6
T2 sequence (Q99436 44-277): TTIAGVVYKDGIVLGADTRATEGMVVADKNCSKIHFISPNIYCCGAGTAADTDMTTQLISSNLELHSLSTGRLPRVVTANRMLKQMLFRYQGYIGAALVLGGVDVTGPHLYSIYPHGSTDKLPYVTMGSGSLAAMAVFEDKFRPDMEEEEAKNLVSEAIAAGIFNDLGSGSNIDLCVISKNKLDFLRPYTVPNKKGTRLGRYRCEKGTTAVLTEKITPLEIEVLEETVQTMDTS

inhibition at 1000 µM [1]: 31% | inhibition at 1000 µM [2]: 30%
SMILES: COc1cc(/C=C/C(=O)O)ccc1O [ferulic acid, 4-hydroxy-3-methoxycinnamic acid]
